Experimental data reported in patent US20260070945A1, “MACROCYCLIC IMMUNOMODULATORS” (Bristol-Myers Squibb Company, priority 2022, published 2026).
*1 amine or outer side, *2 acyl side, *3 side chain or, on linkers, in order; H or OH if unused. Where a SMILES comes first, the peptide text is derived from it. Bridges are numbered along the chain shown (N, C = ends). [ ]: non-standard residue; d: D form. The star is where a group is joined. Phe(4-COOH) = N[C@@H](Cc1ccc(C(=O)O)cc1)C(=O)O; Bip = N[C@@H](Cc1ccc(-c2ccccc2)cc1)C(=O)O; Phe(3-Me) = Cc1cccc(C[C@H](N)C(=O)O)c1; mTyr = N[C@@H](Cc1cccc(O)c1)C(=O)O; X6 = O=C(Cc1ccc(CN[*:1])cc1)[*:2]; dAla(cPr) = N[C@H](CC1CC1)C(=O)O; Cha = N[C@@H](CC1CCCCC1)C(=O)O; dCba = N[C@H](CC1CCC1)C(=O)O; Carboxymethyl = O=C(O)C*; NMeA = CN[C@@H](C)C(=O)O; Orn = NCCC[C@H](N)C(=O)O; Aun = NCCCCCCCCCCC(=O)O; Dab = NCC[C@H](N)C(=O)O; Dap = NC[C@H](N)C(=O)O; AEEA = NCCOCCOCC(=O)O; Ac3c = NC1(C(=O)O)CC1

What follows are compounds tested against T1, PD-1/PD-L1 interaction (PE-labeled human PD-L1-Ig binding to Jurkat cell line over-expressing human PD-1) (Homo sapiens, UniProt Q15116) (assay: Jurkat-PD-1 Cell Binding High-Content Screening Assay (CBA)). Conditions: Jurkat-hPD-1 cells, PE-labeled PD-L1-Ig 20 nM final; read-out: Jurkat HPD1 PDL1 IC50.
T1 construct: expressed in transfected cells; host or cells: Jurkat
T1 sequence (Q15116 25-288): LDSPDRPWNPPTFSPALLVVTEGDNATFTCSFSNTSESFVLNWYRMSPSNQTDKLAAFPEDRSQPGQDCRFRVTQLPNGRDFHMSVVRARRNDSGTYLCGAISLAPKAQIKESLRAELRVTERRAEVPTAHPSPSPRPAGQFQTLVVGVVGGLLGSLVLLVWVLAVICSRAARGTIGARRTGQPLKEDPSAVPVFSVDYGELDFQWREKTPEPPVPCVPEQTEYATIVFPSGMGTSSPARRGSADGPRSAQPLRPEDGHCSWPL
Summary of the method: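 Cells 8×10^3/well, DMEM + 10% FCS; cpd 2 h, 37 °C; PE–PD-L1-Ig 20 nM final, 1 h; PFA fix + Hoechst 33342, 3× dPBS wash; high-content imager.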

SMILES | IC50
CC(C)C[C@@H]1NC(=O)[C@H](Cc2c[nH]c3ccccc23)NC(=O)[C@H](CC(=O)O)NC(=O)[C@H](Cc2ccc(C(=O)O)cc2)NC(=O)[C@H](Cc2ccc(OCC(=O)O)cc2)NC(=O)CSC[C@@H](C(=O)N[C@@H](CCCCN)C(=O)NCc2ccc(CC(=O)NCCCCCCCCCCC(=O)O)cc2)NC(=O)[C@H](CO)NC(=O)[C@H](C(C)C)NC(=O)[C@H](CC2CCCCC2)NC(=O)[C@H](CCN)NC(=O)[C@@H](CC(C)C)NC(=O)[C@H](C)N(C)C(=O)[C@H](C(C)C)NC(=O)[C@H](Cc2ccc(-c3ccccc3)cc2)NC1=O [Example 1245] ({CH2CO}-Y(Carboxymethyl)[Phe(4-COOH)]DWL[Bip]V[NMeA][dL][Dab][Cha]VSCK[X6][Aun]-OH; thioether N-14) | 18.2 nM
CC(C)C[C@@H]1NC(=O)[C@H](Cc2c[nH]c3ccccc23)NC(=O)[C@H](CC(=O)O)NC(=O)[C@H](Cc2ccc(C(=O)O)cc2)NC(=O)[C@H](Cc2ccc(OCC(=O)O)cc2)NC(=O)CSC[C@@H](C(=O)N[C@@H](CCCCN)C(=O)NCCOCCOCC(=O)NCCCCCCCCCCC(=O)O)NC(=O)[C@@H](CO)NC(=O)[C@H](C(C)C)NC(=O)[C@H](CC2CCCCC2)NC(=O)[C@H](CCN)NC(=O)[C@@H](CC(C)C)NC(=O)[C@H](C)N(C)C(=O)[C@H](C(C)C)NC(=O)[C@H](Cc2ccc(-c3ccccc3)cc2)NC1=O [Example 1246] ({CH2CO}-Y(Carboxymethyl)[Phe(4-COOH)]DWL[Bip]V[NMeA][dL][Dab][Cha]V[dS]CK[AEEA][Aun]-OH; thioether N-14) | 31.9 nM
CC(C)C[C@@H]1NC(=O)[C@H](Cc2c[nH]c3ccccc23)NC(=O)[C@H](CC(=O)O)NC(=O)[C@H](Cc2ccc(OCC(=O)O)cc2)NC(=O)[C@H](Cc2ccc(OCC(=O)O)cc2)NC(=O)CSC[C@@H](C(=O)NC2(C(=O)NCCOCCOCC(=O)NCCCCCCCCCCC(=O)O)CC2)NC(=O)[C@H](CCCNC(=N)N)NC(=O)[C@H](C(C)C)NC(=O)[C@H](CC2CCCCC2)NC(=O)[C@H](CCN)NC(=O)[C@@H](CC(C)C)NC(=O)[C@H](C)N(C)C(=O)[C@H](C(C)C)NC(=O)[C@H](Cc2ccc(-c3ccccc3)cc2)NC1=O [Example 1247] ({CH2CO}-Y(Carboxymethyl)Y(Carboxymethyl)DWL[Bip]V[NMeA][dL][Dab][Cha]VRC[Ac3c][AEEA][Aun]-OH; thioether N-14) | 4.1 nM
CC(C)C[C@@H]1NC(=O)[C@H](Cc2c[nH]c3ccccc23)NC(=O)[C@H](CC(=O)O)NC(=O)[C@H](Cc2ccc(C(=O)O)cc2)NC(=O)[C@H](Cc2ccc(OCC(=O)O)cc2)NC(=O)CSC[C@@H](C(=O)N[C@@H](CCCN)C(=O)NCCOCCOCC(=O)NCCCCCCCCCCC(=O)O)NC(=O)[C@H](CO)NC(=O)[C@H](C(C)C)NC(=O)[C@H](CC2CCCCC2)NC(=O)[C@H](CCN)NC(=O)[C@@H](CC2CC2)NC(=O)[C@H](C)N(C)C(=O)[C@H](C(C)C)NC(=O)[C@H](Cc2ccc(-c3ccccc3)cc2)NC1=O [Example 1248] ({CH2CO}-Y(Carboxymethyl)[Phe(4-COOH)]DWL[Bip]V[NMeA][dAla(cPr)][Dab][Cha]VSC[Orn][AEEA][Aun]-OH; thioether N-14) | 18 nM
CC(C)C[C@@H]1NC(=O)[C@H](Cc2c[nH]c3ccccc23)NC(=O)[C@H](CC(=O)O)NC(=O)[C@H](Cc2ccc(C(=O)O)cc2)NC(=O)[C@H](Cc2ccc(OCC(=O)O)cc2)NC(=O)CSC[C@@H](C(=O)N[C@@H](CCCN)C(=O)NCCOCCOCC(=O)NCCCCCCCCCCC(=O)O)NC(=O)[C@H](CO)NC(=O)[C@H](C(C)C)NC(=O)[C@H](CC2CCCCC2)NC(=O)[C@H](CCN)NC(=O)[C@@H](CC2CCC2)NC(=O)[C@H](C)N(C)C(=O)[C@H](C(C)C)NC(=O)[C@H](Cc2ccc(-c3ccccc3)cc2)NC1=O [Example 1249] ({CH2CO}-Y(Carboxymethyl)[Phe(4-COOH)]DWL[Bip]V[NMeA][dCba][Dab][Cha]VSC[Orn][AEEA][Aun]-OH; thioether N-14) | 29.5 nM
Cc1cccc(C[C@@H]2NC(=O)[C@H](CC(=O)O)NC(=O)[C@H](Cc3ccc(OCC(=O)O)cc3)NC(=O)[C@H](Cc3ccc(OCC(=O)O)cc3)NC(=O)CSC[C@@H](C(=O)NC3(C(=O)NCCOCCOCC(=O)NCCCCCCCCCCC(=O)O)CC3)NC(=O)[C@H](CCCNC(=N)N)NC(=O)[C@H](C(C)C)NC(=O)[C@H](CC3CCCCC3)NC(=O)[C@H](CCN)NC(=O)[C@@H](CC(C)C)NC(=O)[C@H](C)N(C)C(=O)[C@H](C(C)C)NC(=O)[C@H](Cc3ccc(-c4ccccc4)cc3)NC(=O)[C@H](CC(C)C)NC2=O)c1 [Example 1250] ({CH2CO}-Y(Carboxymethyl)Y(Carboxymethyl)D[Phe(3-Me)]L[Bip]V[NMeA][dL][Dab][Cha]VRC[Ac3c][AEEA][Aun]-OH; thioether N-14) | 2.8 nM
Cc1cccc(C[C@@H]2NC(=O)[C@H](CC(=O)O)NC(=O)[C@H](Cc3ccc(OCC(=O)O)cc3)NC(=O)[C@H](Cc3ccc(OCC(=O)O)cc3)NC(=O)CSC[C@@H](C(=O)NC3(C(=O)NCCOCCOCC(=O)NCCCCCCCCCCC(=O)O)CC3)NC(=O)[C@H](CCCNC(=N)N)NC(=O)[C@H](C(C)C)NC(=O)[C@H](CC3CCCCC3)NC(=O)[C@H](CCN)NC(=O)[C@@H](CC(C)C)NC(=O)[C@H](C)N(C)C(=O)[C@H](Cc3ccc(O)cc3)NC(=O)[C@H](Cc3ccc(-c4ccccc4)cc3)NC(=O)[C@H](Cc3ccc(O)cc3)NC2=O)c1 [Example 1253] ({CH2CO}-Y(Carboxymethyl)Y(Carboxymethyl)D[Phe(3-Me)]Y[Bip]Y[NMeA][dL][Dab][Cha]VRC[Ac3c][AEEA][Aun]-OH; thioether N-14) | 16.6 nM

More lines, now with the values ahead:

IC50 | SMILES
11.8 nM | Cc1cccc(C[C@@H]2NC(=O)[C@H](CC(=O)O)NC(=O)[C@H](Cc3ccc(OCC(=O)O)cc3)NC(=O)[C@H](Cc3ccc(OCC(=O)O)cc3)NC(=O)CSC[C@@H](C(=O)NC3(C(=O)NCCOCCOCC(=O)NCCCCCCCCCCC(=O)O)CC3)NC(=O)[C@H](CCCN)NC(=O)[C@H](C(C)C)NC(=O)[C@H](CC3CCCCC3)NC(=O)[C@H](CCN)NC(=O)[C@@H](CC(C)C)NC(=O)[C@H](C)N(C)C(=O)[C@H](Cc3ccc(O)cc3)NC(=O)[C@H](Cc3ccc(-c4ccccc4)cc3)NC(=O)[C@H](CC(C)C)NC2=O)c1 [Example 1251] ({CH2CO}-Y(Carboxymethyl)Y(Carboxymethyl)D[Phe(3-Me)]L[Bip]Y[NMeA][dL][Dab][Cha]V[Orn]C[Ac3c][AEEA][Aun]-OH; thioether N-14)
22.8 nM | Cc1cccc(C[C@@H]2NC(=O)[C@H](CC(=O)O)NC(=O)[C@H](Cc3ccc(OCC(=O)O)cc3)NC(=O)[C@H](CN)NC(=O)CSC[C@@H](C(=O)NC3(C(=O)NCCOCCOCC(=O)NCCCCCCCCCCC(=O)O)CC3)NC(=O)[C@H](CCCN)NC(=O)[C@H](C(C)C)NC(=O)[C@H](CC3CCCCC3)NC(=O)[C@H](CCN)NC(=O)[C@@H](CC(C)C)NC(=O)[C@H](C)N(C)C(=O)[C@H](Cc3ccc(O)cc3)NC(=O)[C@H](Cc3ccc(-c4ccccc4)cc3)NC(=O)[C@H](Cc3ccc(O)cc3)NC2=O)c1 [Example 1252] ({CH2CO}-[Dap]Y(Carboxymethyl)D[Phe(3-Me)]Y[Bip]Y[NMeA][dL][Dab][Cha]V[Orn]C[Ac3c][AEEA][Aun]-OH; thioether N-14)
12.5 nM | Cc1cccc(C[C@@H]2NC(=O)[C@H](CC(=O)O)NC(=O)[C@H](Cc3ccc(OCC(=O)O)cc3)NC(=O)[C@H](Cc3ccc(OCC(=O)O)cc3)NC(=O)CSC[C@@H](C(=O)N[C@@H](CCN)C(=O)NCCCCCCCCCCC(=O)O)NC(=O)[C@H](CCCN)NC(=O)[C@H](C(C)C)NC(=O)[C@H](CC3CCCCC3)NC(=O)[C@H](CCN)NC(=O)[C@@H](CC(C)C)NC(=O)[C@H](C)N(C)C(=O)[C@H](Cc3ccc(O)cc3)NC(=O)[C@H](Cc3ccc(-c4ccccc4)cc3)NC(=O)[C@H](C(C)C)NC2=O)c1 [Example 1254] ({CH2CO}-Y(Carboxymethyl)Y(Carboxymethyl)D[Phe(3-Me)]V[Bip]Y[NMeA][dL][Dab][Cha]V[Orn]C[Dab][Aun]-OH; thioether N-14)
206 nM | Cc1cccc(C[C@@H]2NC(=O)[C@H](CC(=O)O)NC(=O)[C@H](Cc3ccc(OCC(=O)O)cc3)NC(=O)[C@H](CN)NC(=O)CSC[C@@H](C(=O)N[C@@H](CCN)C(=O)NCCCCCCCCCCC(=O)O)NC(=O)[C@H](CCCN)NC(=O)[C@H](C(C)C)NC(=O)[C@H](CC(C)C)NC(=O)[C@H](CCN)NC(=O)[C@@H](CC(C)C)NC(=O)[C@H](C)N(C)C(=O)[C@H](Cc3ccc(O)cc3)NC(=O)[C@H](Cc3ccc(-c4ccccc4)cc3)NC(=O)[C@H](Cc3ccc(O)cc3)NC2=O)c1 [Example 1255] ({CH2CO}-[Dap]Y(Carboxymethyl)D[Phe(3-Me)]Y[Bip]Y[NMeA][dL][Dab]LV[Orn]C[Dab][Aun]-OH; thioether N-14)
502 nM | CC(C)[C@@H]1NC(=O)[C@H](CC2CCCCC2)NC(=O)[C@H](CCN)NC(=O)[C@@H](C)NC(=O)[C@H](C)N(C)C(=O)[C@H](Cc2ccc(O)cc2)NC(=O)[C@H](Cc2ccc(-c3ccccc3)cc2)NC(=O)[C@H](Cc2ccc(O)cc2)NC(=O)[C@H](Cc2cccc(O)c2)NC(=O)[C@H](CC(=O)O)NC(=O)[C@H](Cc2ccc(OCC(=O)O)cc2)NC(=O)[C@H](CN)NC(=O)CSC[C@@H](C(=O)N[C@@H](CCN)C(=O)NCCCCCCCCCCC(=O)O)NC(=O)[C@H](CCCN)NC1=O [Example 1256] ({CH2CO}-[Dap]Y(Carboxymethyl)D[mTyr]Y[Bip]Y[NMeA][dA][Dab][Cha]V[Orn]C[Dab][Aun]-OH; thioether N-14)
226 nM | CC(C)C[C@H]1NC(=O)[C@H](C)N(C)C(=O)[C@H](Cc2ccc(O)cc2)NC(=O)[C@H](Cc2ccc(-c3ccccc3)cc2)NC(=O)[C@H](Cc2ccc(O)cc2)NC(=O)[C@H](Cc2cccc(O)c2)NC(=O)[C@H](CC(=O)O)NC(=O)[C@H](Cc2ccc(OCC(=O)O)cc2)NC(=O)[C@H](CN)NC(=O)CSC[C@@H](C(=O)N[C@@H](CCN)C(=O)NCCCCCCCCCCC(=O)O)NC(=O)[C@H](CCCN)NC(=O)[C@H](C(C)C)NC(=O)[C@H](CC2CCCCC2)NC(=O)[C@H](CCN)NC1=O [Example 1257] ({CH2CO}-[Dap]Y(Carboxymethyl)D[mTyr]Y[Bip]Y[NMeA][dL][Dab][Cha]V[Orn]C[Dab][Aun]-OH; thioether N-14)
